Drawing on PMC8286840, “Identifying SARS-CoV-2 antiviral compounds by screening for small molecule inhibitors of Nsp3 papain-like protease” (Biochemical Journal, 2021), this text covers remaining activity for 30 compounds.

Assay [1] addresses T1, SARS-CoV-2 PLpro (nsp3 1564–1878) (Severe acute respiratory syndrome coronavirus 2, UniProt P0DTD1). Briefly: biochemical. Also on record: FRET-quenched peptide (Pro3) cleavage by PLpro, 10 min pre-incubation, slope over 20 min, normalised to no-compound control. The settings on record: low concentration screen, read-out: % of control remaining.
Assay [2] deals with T1, SARS-CoV-2 PLpro (nsp3 1564–1878). The experiment in a line: biochemical. Further details: FRET-quenched peptide (Pro3) cleavage by PLpro, 10 min pre-incubation, slope over 20 min, normalised to no-compound control. Conditions: high concentration screen, read-out: % of control remaining.

Counter-ions that a name gives are not always drawn. Like-named read-outs stand apart in the source and are kept apart here.

`Nc1nc2ccc(Cl)cc2n2c(-c3ccccc3)nnc12` [CP-66713]: in assay [1] (Well no.=5624), the remaining activity at 1.25 µM came out at 96.6%. Further, in assay [2] (Well no.=5624), the remaining activity at 3.75 µM stood at 96%.

With `O=c1cc[nH]c(=O)[nH]1` [Uracil], the remaining activity at 1.25 µM in assay [1] (Well no.=7023) is 103%. The remaining activity at 3.75 µM in assay [2] (Well no.=7023) came to 102%.

Turning to `O=c1[nH]c2ccccc2n1CCCN1CCN(C(c2ccccc2)c2ccccc2)CC1` [Oxatomide], the remaining activity at 1.25 µM turned out to be 103% in assay [1] (Well no.=994) and 95.4% in assay [1] (Well no.=1855). The remaining activity at 3.75 µM in assay [2] (Well no.=994) was 101%; in assay [2] (Well no.=1855) it was 98.9%.

Consider `COc1ccc(C[C@H]2c3cc(OC)c(OC)cc3CC[N+]2(C)C)cc1OC` [Laudanosine methiodide], for which the remaining activity at 1.25 µM in assay [1] (Well no.=3589) stood at 103%. The remaining activity at 3.75 µM in assay [2] (Well no.=3589) was determined as 106%.

`C=C1C[C@]23C[C@@]1(O)CC[C@H]2[C@@]12C=C[C@H](O)[C@@](C)(C(=O)O1)[C@H]2[C@@H]3C(=O)O` [(+)-Gibberellic acid]: the remaining activity at 1.25 µM in assay [1] (Well no.=3212) was 103%. For the same compound, the remaining activity at 3.75 µM in assay [2] (Well no.=3212) is 105%.

As for `CCCNC(=O)[C@H]1O[C@@H]1C(=O)N[C@H](C(=O)N1CCC[C@H]1C(=O)O)[C@@H](C)CC` [CA-074], the remaining activity at 1.25 µM in assay [1] (Well no.=8272) stood at 104%. Moreover, in assay [2] (Well no.=8272), the remaining activity at 3.75 µM turned out to be 101%.

Turning to `CC(C)c1nc(N(C)S(C)(=O)=O)nc(-c2ccc(F)cc2)c1/C=C/[C@@H](O)C[C@@H](O)CC(=O)O` [Rosuvastatin Calcium], in assay [1] (Well no.=8240), the remaining activity at 1.25 µM was found to be 96.8%. For the same compound, in assay [2] (Well no.=8240), the remaining activity at 3.75 µM was determined as 93.8%.

Take `CN1C(=O)[C@@H](NC(=O)c2n[nH]c(Cc3ccccc3)n2)COc2ccccc21` [GSK2982772]: the remaining activity at 1.25 µM in assay [1] (Well no.=7074) is 96.7%. The remaining activity at 3.75 µM in assay [2] (Well no.=7074) was determined as 95.1%.

As for `CN(C)C(=O)Oc1ccc[n+](C)c1` [Pyridostigmine bromide], the remaining activity at 1.25 µM in assay [1] (Well no.=1499) was found to be 89.1%. Besides, the remaining activity at 3.75 µM in assay [2] (Well no.=1499) amounted to 91.4%.

With `COc1ccc(CC(=O)O)cc1OC` [3,4-Dimethoxyphenylacetic acid], in assay [1] (Well no.=6639), the remaining activity at 1.25 µM turned out to be 103%. Also, in assay [2] (Well no.=6639), the remaining activity at 3.75 µM stood at 104%.

As to `CC(C)(Oc1ccc(C(=O)c2ccc(Cl)cc2)cc1)C(=O)O` [Fenofibric acid], the remaining activity at 1.25 µM in assay [1] (Well no.=8204) is 106%. Also, in assay [2] (Well no.=8204), the remaining activity at 3.75 µM worked out at 104%.

Regarding `Nc1ncnc2nc(-c3ccc(N4CCOCC4)nc3)cc(-c3cccc(Br)c3)c12` [Adenosine Kinase Inhibitor], the remaining activity at 1.25 µM in assay [1] (Well no.=2694) stood at 102%. Moreover, the remaining activity at 3.75 µM in assay [2] (Well no.=2694) was 103%.

`CC(C)C[C@H](NC(=O)[C@H](O)[C@H](N)Cc1ccccc1)C(=O)O` [Epibestatin hydrochloride]: the remaining activity at 1.25 µM in assay [1] (Well no.=692) worked out at 96.8%. Moreover, the remaining activity at 3.75 µM in assay [2] (Well no.=692) is 93.6%.

As to `CC(=O)[C@]1(O)Cc2c(O)c3c(c(O)c2[C@@H](O[C@H]2C[C@H](N)[C@H](O)[C@H](C)O2)C1)C(=O)c1ccccc1C3=O` [Idarubicin], the remaining activity at 1.25 µM in assay [1] (Well no.=574) is 103%; in assay [1] (Well no.=1613) it was 102%. Moreover, the figures for the remaining activity at 3.75 µM in assay [2] (Well no.=574) and in assay [2] (Well no.=1613) were 102% and 103%, respectively.

On to `Cc1cn[nH]c1` [4-Methylpyrazole hydrochloride], for which the remaining activity at 1.25 µM in assay [1] (Well no.=776) was 98.4%. Moreover, the remaining activity at 3.75 µM in assay [2] (Well no.=776) worked out at 99.2%.

With `Oc1cccc(-c2nc(N3CCOCC3)c3oc4ncccc4c3n2)c1` [PI-103], in assay [1] (Well no.=2367), the remaining activity at 1.25 µM was determined as 100%. Also, the remaining activity at 3.75 µM in assay [2] (Well no.=2367) came out at 100%.

`CC(C)(O)[C@H]1CC[C@@](C)([C@H]2[C@@H](O)C[C@@]3(C)[C@@H]4C[C@H](O[C@@H]5O[C@H](CO)[C@@H](O)[C@H](O)[C@H]5O)[C@H]5C(C)(C)[C@@H](O[C@@H]6OC[C@@H](O)[C@H](O)[C@H]6O)CC[C@@]56C[C@@]46CC[C@]23C)O1` [Astragaloside A]: the remaining activity at 1.25 µM in assay [1] (Well no.=5238) is 98.6%. The remaining activity at 3.75 µM in assay [2] (Well no.=5238) worked out at 102%.

With `Cc1c(Nc2ncccc2C(=O)O)cccc1C(F)(F)F` [Flunixin meglumin], in assay [1] (Well no.=5094), the remaining activity at 1.25 µM was determined as 103%. Moreover, in assay [2] (Well no.=5094), the remaining activity at 3.75 µM was 108%.

`CN1[C@@H]2C[C@@H](OC(=O)[C@H](CO)c3ccccc3)C[C@H]1[C@@H]1O[C@@H]12` [Scopolamine (hydrobromide)]: the remaining activity at 1.25 µM in assay [1] (Well no.=6670) came out at 102%. In addition, in assay [2] (Well no.=6670), the remaining activity at 3.75 µM is 105%.

In the case of `Cn1cnc2c(NCc3ccccc3)nc(NCCO)nc21` [Olomoucine - 6-(Benzylamino)-2-(2-hydroxyethylamino)-9-methylpurine], the remaining activity at 1.25 µM in assay [1] (Well no.=2382) was determined as 101%. Further, the remaining activity at 3.75 µM in assay [2] (Well no.=2382) worked out at 102%.

As for `CCCN1CCc2cccc3c2[C@H]1Cc1ccc(O)c(O)c1-3` [R(-)-Propylnorapomorphine hydrochloride], the remaining activity at 1.25 µM in assay [1] (Well no.=540) came to 104%. In assay [2] (Well no.=540), the remaining activity at 3.75 µM came out at 108%.

Turning to `CC(N/C(=N\C#N)Nc1ccncc1)C(C)(C)C` (centres unmarked) [Pinacidil], the remaining activity at 1.25 µM in assay [1] (Well no.=1503) was 98.1%; in assay [1] (Well no.=1603) it was 103%. Moreover, the values for the remaining activity at 3.75 µM in assay [2] (Well no.=1503) and in assay [2] (Well no.=1603) were 97.2% and 98.9%, respectively.

On to `CNCCC(Oc1ccc(C(F)(F)F)cc1)c1ccccc1` (centres unmarked) [Fluoxetine], for which the remaining activity at 1.25 µM in assay [1] (Well no.=2102) is 96.6%. Further, the remaining activity at 3.75 µM in assay [2] (Well no.=2102) came to 98.8%.

As for `Cc1nn(C)c2c1C(c1ccc(C(F)(F)F)cc1)C(C#N)=C(N)O2` (centres unmarked) [BQU57], the remaining activity at 1.25 µM in assay [1] (Well no.=7957) was 103%. Moreover, the remaining activity at 3.75 µM in assay [2] (Well no.=7957) was 94.7%.

For the compound `CN1CC[C@]2(CCN3CCc4c(oc5ccccc45)[C@@H]3C2)N(C)C1=O` [MK-912], in assay [1] (Well no.=934), the remaining activity at 1.25 µM is 101%. The remaining activity at 3.75 µM in assay [2] (Well no.=934) was determined as 104%.

Take `C[C@H](N)[C@H](O)c1cccc(O)c1` [Metaraminol (tartrate)]: the remaining activity at 1.25 µM in assay [1] (Well no.=6417) was found to be 103%. Besides, the remaining activity at 3.75 µM in assay [2] (Well no.=6417) was found to be 99.6%.

Turning to `O=C(CCCN1CC=C(n2c(=O)[nH]c3ccccc32)CC1)c1ccc(F)cc1` [Droperidol], the remaining activity at 1.25 µM stood at 105% in assay [1] (Well no.=493) and 97.2% in assay [1] (Well no.=7382). Besides, the remaining activity at 3.75 µM in assay [2] (Well no.=493) is 106%; in assay [2] (Well no.=7382), 101%.

With `CC1CCc2cc(F)cc3c(=O)c(C(=O)O)cn1c23` (centres unmarked) [Flumequine], the remaining activity at 1.25 µM in assay [1] (Well no.=5032) is 96.8%. Also, the remaining activity at 3.75 µM in assay [2] (Well no.=5032) was found to be 97.6%.

As to `C[C@@H]1O[C@H](C[N+](C)(C)C)C[C@H]1O` (racemic), the remaining activity at 1.25 µM in assay [1] (Well no.=1037) was determined as 97.2%. Moreover, the remaining activity at 3.75 µM in assay [2] (Well no.=1037) is 98.2%.

As for `C[N+](C)(C)CCCCCNCC12CC3CC(CC(C3)C1)C2` [IEM-1460], in assay [1] (Well no.=524), the remaining activity at 1.25 µM is 105%. Besides, in assay [2] (Well no.=524), the remaining activity at 3.75 µM is 105%.
